# In ChEMBL document CHEMBL3244110, “Synthesis and biological evaluation of some 2-amino-4-aryl-3H-1,5-benzodiazepine analogues of clozapine” (J Med Chem, 1978):
# The source made the active and inactive calls. No cut-off for these calls is given here.
# System: Mus musculus
# Test: Antipsychotic activity in mouse assessed as protection against amphetamine-induced lethality at 5 mg/kg, ip treated 30 mins before amphetamine challenge
# Format: functional, organism-based
# Design: dose 5 mg/kg
# Conditions: not given
row,Compound,Activity
1,COc1ccc(C2=Nc3ccccc3N=C(N3CCN(C)CC3)C2)cc1,inactive
2,CN(CCO)C1=Nc2ccccc2N=C(c2ccccc2)C1,inactive
3,CN1CCN(C2=Nc3cc(Cl)ccc3N=C(c3ccccc3)C2)CC1,Active
4,CN(C)C1=Nc2ccccc2N=C(c2ccccc2)C1,inactive
5,O=C(CCCN1CCC(O)(c2ccc(Cl)cc2)CC1)c1ccc(F)cc1 [HALOPERIDOL],Active
6,OCCN1CCN(CCCN2c3ccccc3Sc3ccc(C(F)(F)F)cc32)CC1,Active
7,Cc1ccc(C2=Nc3ccccc3N=C(N3CCC(c4ccccc4)CC3)C2)cc1,inactive
8,Butaclamol,Active
9,Cc1cc2c(cc1C)N=C(N1CCN(C)CC1)CC(c1ccc(F)cc1)=N2,inactive
10,CN1CCN(C2=Nc3ccccc3N=C(c3ccccc3)C2)CC1,inactive
11,c1ccc(CC2CCN(C3=Nc4ccccc4N=C(c4ccccc4)C3)CC2)cc1,Active
12,CN1CCN(C2=Nc3ccccc3N=C(c3ccc(Cl)cc3)C2)CC1,inactive
13,COc1ccc(C2=Nc3ccccc3N=C(N3CCC(c4ccccc4)CC3)C2)cc1,inactive
14,CN(C)CCCN1c2ccccc2Sc2ccc(Cl)cc21,Active
15,Cc1cc2c(cc1C)N=C(N1CCC(c3ccccc3)CC1)CC(c1ccccc1)=N2,inactive

# System: Mus musculus
# Test: Antipsychotic activity in mouse assessed as protection against amphetamine-induced lethality at 50 mg/kg, ip treated 30 mins before amphetamine challenge
# Format: functional, organism-based
# Design: dose 50 mg/kg
# Conditions: not given
row,Compound,Activity
1,COc1ccc(C2=Nc3ccccc3N=C(N3CCN(C)CC3)C2)cc1,inactive
2,CN(CCO)C1=Nc2ccccc2N=C(c2ccccc2)C1,inactive
3,CN1CCN(C2=Nc3cc(Cl)ccc3N=C(c3ccccc3)C2)CC1,inactive
4,CN(C)C1=Nc2ccccc2N=C(c2ccccc2)C1,inactive
5,O=C(CCCN1CCC(O)(c2ccc(Cl)cc2)CC1)c1ccc(F)cc1 [HALOPERIDOL],Active
6,OCCN1CCN(CCCN2c3ccccc3Sc3ccc(C(F)(F)F)cc32)CC1,Active
7,Cc1ccc(C2=Nc3ccccc3N=C(N3CCC(c4ccccc4)CC3)C2)cc1,inactive
8,Butaclamol,Active
9,Cc1cc2c(cc1C)N=C(N1CCN(C)CC1)CC(c1ccc(F)cc1)=N2,inactive
10,CN1CCN(C2=Nc3ccccc3N=C(c3ccccc3)C2)CC1,inactive
11,c1ccc(CC2CCN(C3=Nc4ccccc4N=C(c4ccccc4)C3)CC2)cc1,Active
12,CN1CCN(C2=Nc3ccccc3N=C(c3ccc(Cl)cc3)C2)CC1,inactive
13,COc1ccc(C2=Nc3ccccc3N=C(N3CCC(c4ccccc4)CC3)C2)cc1,inactive
14,CN(C)CCCN1c2ccccc2Sc2ccc(Cl)cc21,Active
15,Cc1cc2c(cc1C)N=C(N1CCC(c3ccccc3)CC1)CC(c1ccccc1)=N2,inactive

# System: Rattus norvegicus
# Test: Antipsychotic activity in 0.2 mA footshock-induced conditioned stimulus rat assessed as decrease in avoidance response at 5 mg/kg, ip after 30 mins
# Format: functional, organism-based
# Design: dose 5 mg/kg
# Conditions: not given
row,Compound,Activity
1,COc1ccc(C2=Nc3ccccc3N=C(N3CCN(C)CC3)C2)cc1,inactive
2,CN(CCO)C1=Nc2ccccc2N=C(c2ccccc2)C1,inactive
3,CN1CCN(C2=Nc3cc(Cl)ccc3N=C(c3ccccc3)C2)CC1,inactive
4,CN(C)C1=Nc2ccccc2N=C(c2ccccc2)C1,inactive
5,Cc1ccc(C2=Nc3ccccc3N=C(N3CCC(c4ccccc4)CC3)C2)cc1,inactive
6,Cc1cc2c(cc1C)N=C(N1CCN(C)CC1)CC(c1ccc(F)cc1)=N2,inactive
7,CN1CCN(C2=Nc3ccccc3N=C(c3ccccc3)C2)CC1,inactive
8,c1ccc(CC2CCN(C3=Nc4ccccc4N=C(c4ccccc4)C3)CC2)cc1,inactive
9,CN1CCN(C2=Nc3ccccc3N=C(c3ccc(Cl)cc3)C2)CC1,inactive
10,COc1ccc(C2=Nc3ccccc3N=C(N3CCC(c4ccccc4)CC3)C2)cc1,inactive
11,Cc1cc2c(cc1C)N=C(N1CCC(c3ccccc3)CC1)CC(c1ccccc1)=N2,inactive

# System: Rattus norvegicus
# Test: Antipsychotic activity in 0.2 mA footshock-induced conditioned stimulus rat assessed as decrease in avoidance response at 20 mg/kg, ip after 30 mins
# Format: functional, organism-based
# Design: dose 20 mg/kg
# Conditions: not given
row,Compound,Activity
1,COc1ccc(C2=Nc3ccccc3N=C(N3CCN(C)CC3)C2)cc1,inactive
2,CN(CCO)C1=Nc2ccccc2N=C(c2ccccc2)C1,inactive
3,CN1CCN(C2=Nc3cc(Cl)ccc3N=C(c3ccccc3)C2)CC1,inactive
4,CN(C)C1=Nc2ccccc2N=C(c2ccccc2)C1,inactive
5,Cc1ccc(C2=Nc3ccccc3N=C(N3CCC(c4ccccc4)CC3)C2)cc1,inactive
6,Cc1cc2c(cc1C)N=C(N1CCN(C)CC1)CC(c1ccc(F)cc1)=N2,inactive
7,CN1CCN(C2=Nc3ccccc3N=C(c3ccccc3)C2)CC1,inactive
8,c1ccc(CC2CCN(C3=Nc4ccccc4N=C(c4ccccc4)C3)CC2)cc1,inactive
9,CN1CCN(C2=Nc3ccccc3N=C(c3ccc(Cl)cc3)C2)CC1,inactive
10,COc1ccc(C2=Nc3ccccc3N=C(N3CCC(c4ccccc4)CC3)C2)cc1,inactive
11,Cc1cc2c(cc1C)N=C(N1CCC(c3ccccc3)CC1)CC(c1ccccc1)=N2,inactive

# System: Mus musculus
# Test: Antipsychotic activity in mouse assessed as increase in brain dopamine turnover at 25 to 30 mg/kg, ip pretreated with 200 mg/kg, ip alpha-methyl-p-tyrosine tyrosine hydroxylase inhibitor
# Format: functional, organism-based
# Conditions: not given
row,Compound,Activity
1,CN(CCO)C1=Nc2ccccc2N=C(c2ccccc2)C1,inactive
2,CN1CCN(C2=Nc3cc(Cl)ccc3N=C(c3ccccc3)C2)CC1,inactive
3,CN(C)C1=Nc2ccccc2N=C(c2ccccc2)C1,inactive
4,O=C(CCCN1CCC(O)(c2ccc(Cl)cc2)CC1)c1ccc(F)cc1 [HALOPERIDOL],Active
5,Cc1ccc(C2=Nc3ccccc3N=C(N3CCC(c4ccccc4)CC3)C2)cc1,inactive
6,CSc1ccc2c(c1)N(CCC1CCCCN1C)c1ccccc1S2 (stereo unspecified),Active
7,CN1CCN(C2=Nc3ccccc3N=C(c3ccccc3)C2)CC1,Active
8,c1ccc(CC2CCN(C3=Nc4ccccc4N=C(c4ccccc4)C3)CC2)cc1,inactive
9,CN1CCN(C2=Nc3ccccc3N=C(c3ccc(Cl)cc3)C2)CC1,inactive
10,COc1ccc(C2=Nc3ccccc3N=C(N3CCC(c4ccccc4)CC3)C2)cc1,inactive
11,CN(C)CCCN1c2ccccc2Sc2ccc(Cl)cc21,Active
12,Cc1cc2c(cc1C)N=C(N1CCC(c3ccccc3)CC1)CC(c1ccccc1)=N2,inactive

# Biological target: Adenylate cyclase
# Test: Inhibition of dopamine-sensitive rat brain adenylyl cyclase activity assessed as cAMP level
# Conditions: not given
row,Compound,IC50
1,O=C(CCCN1CCC(O)(c2ccc(Cl)cc2)CC1)c1ccc(F)cc1 [HALOPERIDOL],2.3 µM

# Biological target: Adenylate cyclase (Rattus norvegicus) (UniProt D4A3N4+P26770+Q04400+P26769+Q03343+P40146+Q8CFM9+P21932)
# Test: Inhibition of dopamine-sensitive rat brain adenylyl cyclase activity assessed as cAMP level at 10^-4 M
# Conditions: not given
row,Compound,inhibition
1,CN1CCN(C2=Nc3ccccc3N=C(c3ccccc3)C2)CC1,inactive
2,Cc1cc2c(cc1C)N=C(N1CCC(c3ccccc3)CC1)CC(c1ccccc1)=N2,inactive

# System: Mus musculus
# Test: Toxicity in mouse assessed as depression at 50 mg/kg, ip
# Format: organism-based
# Design: dose 50 mg/kg, route intraperitoneal
# Conditions: in vivo
row,Compound,Activity
1,CN1CCN(C2=Nc3ccccc3N=C(c3ccccc3)C2)CC1,Toxic

# System: Mus musculus
# Test: Toxicity in mouse assessed as ptosis at 50 mg/kg, ip
# Format: organism-based
# Design: dose 50 mg/kg, route intraperitoneal
# Conditions: in vivo
row,Compound,Activity
1,CN(C)C1=Nc2ccccc2N=C(c2ccccc2)C1,Toxic
2,CN1CCN(C2=Nc3ccccc3N=C(c3ccccc3)C2)CC1,Toxic
3,c1ccc(CC2CCN(C3=Nc4ccccc4N=C(c4ccccc4)C3)CC2)cc1,Toxic
